PubChem BioAssay AID1963875 (Molecular Pharmacology Branch, DTP, NCI, 2024)

System: KRAS-mutant PDC complex spheroid viability
Experiment: Anticancer human tumor 186277-243-T-J2-PDC patient-derived colon adenocarcinoma cell line growth inhibition [KRAS2]
Conditions: for IC50: curve of first compound; for viability, T/C: stronger effect = lower value
Text: Multicellular complex tumor spheroid response to RAS pathway inhibitors in combination with a targeted agents in patient-derived cell lines with oncogenic KRAS variants from multiple cancer types
A high-throughput screen of multi-cell type tumor spheroids was designed to identify active combinations of targeted small molecules and KRAS pathway inhibitors. Complex spheroids include a stromal component modeled by human endothelial cells (HUVEC) and fibroblasts modeled by human mesenchymal stem cells (MSCs). The concentration ranges selected for each drug and investigational agent were based upon clinically achievable concentrations if the clinical Cmax of the agent was known.
Compounds. The drugs and investigational agents: BI-3406 (NSC825286), BAY-293 (NSC824723), batoprotafib (TNO155; NSC825523), sotorasib (AMG 510; NSC818433), MRTX1257 (NSC819558), elimusertib (BAY 1895344; NSC800525), molibresib (GSK525762; NSC774829), temuterkib (LY3214996; NSC803410), venetoclax (NSC766270), alisertib (NSC759677), olaparib (NSC753686), talazoparib (NSC767125), erdafitinib (NSC781556), ipatasertib (NSC767898), cabozantinib (NSC761068), nintedanib (NSC756659), abemaciclib (NSC768073), docetaxel (NSC628503), trametinib (NSC758246), and sapanisertib (NSC764658) were obtained from the National Cancer Institute (NCI) Developmental Therapeutics Program Chemical Repository. The FDA-approved anticancer drug set is available from the Developmental Therapeutics Program. […] The stock solutions were prepared in dimethyl sulfoxide (DMSO, Sigma-Aldrich, St. Louis, MO, cat. D2650) at 800-fold the tested concentration and stored at -70 degrees C prior to their use. All drugs and investigational agents were tested over a range starting from a high concentration at or near the clinical Cmax and decreasing in half-log increments. If the clinical Cmax for an agent had not been determined, the highest concentration tested was 10 microM.
Cell Culture. All cells were maintained in an incubator at 37 degrees C and 5% CO2 with 95% humidity. The PDC lines were cultured according to standard operating procedures established by the NCI PDMR (https://pdmr.cancer.gov/sops/default.htm). Briefly, all PDCs were thawed and cultured in Matrigel-coated flasks prepared with a working solution of 1X Ham's F-12 nutrient mix, without supplementation (Invitrogen, Waltham, MA, cat. 11765054), 100 U/mL penicillin-streptomycin (Invitrogen, cat. 15140122), and 2.5% Matrigel (Corning Inc., Corning, NY, cat. 354248) for the first three passages. All PDCs were cultured in complete DMEM/F-12 media containing advanced DMEM/F-12 (Invitrogen, cat. 12634028), 4.9% defined fetal bovine serum, heat inactivated (HyClone Laboratories Inc., Logan, UT, cat. SH30070.03HI), 389 ng/mL hydrocortisone (Sigma-Aldrich, cat. H4001), 9.7 ng/mL human EGF recombinant protein (Invitrogen, cat. PHG0313), 23.4 microg/mL adenine (Sigma-Aldrich, cat. A2786), 97.3 U/mL penicillin-streptomycin (Invitrogen, cat. 15140122), 1.9 mM L-glutamine (Invitrogen, cat. 25030081), and 9.7 microM Y-27632 dihydrochloride (Tocris Bioscience, Bristol, United Kingdom, cat. 1254). The PDCs were cultured in complete DMEM/F12 media without 9.7 microM Y-27632 dihydrochloride for at least two passages prior to the screen. The established cell line HOP-62 was cultured in RPMI 1640 medium, HEPES (Invitrogen, cat. 22400105) with 10% defined fetal bovine serum (HyClone Laboratories Inc., cat. SH30070.03) and 2 mM L-glutamine (Invitrogen, cat. 25030081). The pooled donor HUVEC were cultured in endothelial cell growth medium 2 (PromoCell, Heidelberg, Germany, cat. C-22011) and the hMSC were cultured in mesenchymal stem cell growth medium 2 (PromoCell, cat. C-28009). For all experiments, HUVEC and hMSC were used at passages </=5, while the malignant cell lines were used at passages </=15. […]

[1] = second compound 0.1 µM, first compound 0.0316 µM
[2] = second compound 0.1 µM, first compound 0.1 µM
[3] = second compound 0.1 µM, first compound 0.316 µM
[4] = second compound 0.1 µM, first compound 1 µM
[5] = second compound 0.1 µM, first compound 3.16 µM
[6] = second compound 0.1 µM, first compound 10 µM
[7] = second compound 0.316 µM, first compound 0.0316 µM
[8] = second compound 0.316 µM, first compound 0.1 µM
[9] = second compound 0.316 µM, first compound 0.316 µM
[10] = second compound 0.316 µM, first compound 1 µM
[11] = second compound 0.316 µM, first compound 3.16 µM
[12] = second compound 0.316 µM, first compound 10 µM
[13] = second compound 1 µM, first compound 0.0316 µM
[14] = second compound 1 µM, first compound 0.1 µM
[15] = second compound 1 µM, first compound 0.316 µM
[16] = second compound 1 µM, first compound 1 µM
[17] = second compound 1 µM, first compound 3.16 µM
[18] = second compound 1 µM, first compound 10 µM
[19] = second compound 3.16 µM, first compound 0.0316 µM
[20] = second compound 3.16 µM, first compound 0.1 µM
[21] = second compound 3.16 µM, first compound 0.316 µM
[22] = second compound 3.16 µM, first compound 1 µM
[23] = second compound 3.16 µM, first compound 3.16 µM
[24] = second compound 3.16 µM, first compound 10 µM
[25] = second compound 10 µM, first compound 0.0316 µM
[26] = second compound 10 µM, first compound 0.1 µM
[27] = second compound 10 µM, first compound 0.316 µM
[28] = second compound 10 µM, first compound 1 µM
[29] = second compound 10 µM, first compound 3.16 µM
[30] = second compound 10 µM, first compound 10 µM
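For viability, T/C in this document: viability read after seven days of compound exposure; 100% = DMSO vehicle-treated spheroids so lower means less viable.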

SMILES | IC50 (second compound 0.1 µM) [nM] | IC50 (second compound 0.316 µM) [nM] | IC50 (second compound 1 µM) [nM] | IC50 (second compound 3.16 µM) [nM] | IC50 (second compound 10 µM) [nM] | viability, T/C [1] [%] | viability, T/C [2] [%] | viability, T/C [3] [%] | viability, T/C [4] [%] | viability, T/C [5] [%] | viability, T/C [6] [%] | viability, T/C [7] [%] | viability, T/C [8] [%] | viability, T/C [9] [%] | viability, T/C [10] [%] | viability, T/C [11] [%] | viability, T/C [12] [%] | viability, T/C [13] [%] | viability, T/C [14] [%] | viability, T/C [15] [%] | further results
COC(=O)c1ccc2c(C(=Nc3ccc(N(C)C(=O)CN4CCN(C)CC4)cc3)c3ccccc3)c(O)[nH]c2c1 + C=CC(=O)N1CCN(c2nc(=O)n(-c3c(C)ccnc3C(C)C)c3nc(-c4c(O)cccc4F)c(F)cc23)C(C)C1 | 2130 | 882 | 1570 | 462 | 204 | 95.6 | 93 | 94.4 | 104 | 25.4 | 12.7 | 87.5 | 96.1 | 97.7 | 44.6 | 19.7 | 6.92 | 96 | 92.9 | 102 | viability, T/C [16]: 73%; viability, T/C [17]: 13.7%; viability, T/C [18]: 3.67%; viability, T/C [19]: 96.1%; viability, T/C [20]: 96.8%; viability, T/C [21]: 53.5%; viability, T/C [22]: 33.5%; viability, T/C [23]: 6.72%; viability, T/C [24]: 3.16%; viability, T/C [25]: 56.1%; viability, T/C [26]: 63.4%; viability, T/C [27]: 43.5%; viability, T/C [28]: 12.5%; viability, T/C [29]: 1.11%; viability, T/C [30]: 0.14%
O=C(c1cc(Cc2n[nH]c(=O)c3ccccc23)ccc1F)N1CCN(C(=O)C2CC2)CC1 + C=CC(=O)N1CCN(c2nc(=O)n(-c3c(C)ccnc3C(C)C)c3nc(-c4c(O)cccc4F)c(F)cc23)C(C)C1 | 2020 | 4920 | 6630 | 5740 | 1400 | 108 | 111 | 98.6 | 78 | 31.4 | 22.7 | 105 | 101 | 107 | 96.6 | 60.6 | 33.1 | 96.5 | 96.8 | 103 | viability, T/C [16]: 107%; viability, T/C [17]: 74.6%; viability, T/C [18]: 36.4%; viability, T/C [19]: 95.7%; viability, T/C [20]: 106%; viability, T/C [21]: 101%; viability, T/C [22]: 89.1%; viability, T/C [23]: 67%; viability, T/C [24]: 34.6%; viability, T/C [25]: 78%; viability, T/C [26]: 82.6%; viability, T/C [27]: 68.8%; viability, T/C [28]: 51.4%; viability, T/C [29]: 40.2%; viability, T/C [30]: 17.9%
